Conditions: in water

`CCCCCCCCn1cc[n+](C)c1.F[P-](F)(F)(F)(F)F` showed a solubility (mole fraction) (285.85 K) of 9.4e-05, a solubility (mole fraction) (293.95 K) of 0.000116 and a solubility (mole fraction) (299.05 K) of 0.000128. It also gave a solubility (mole fraction) (307.35 K) of 0.000154, a solubility (mole fraction) (311.35 K) of 0.000169 and a solubility (mole fraction) (318.15 K) of 0.000197. The solubility (mole fraction) (324.75 K) was 0.000216, the solubility (mole fraction) (328.15 K) was 0.000239 and the solubility (mole fraction) (331.15 K) was 0.000257. It also gave a solubility (mole fraction) (338.85 K) of 0.000304, a solubility (mole fraction) (343.35 K) of 0.000345 and a solubility (mole fraction) (348.45 K) of 0.000383. For the same molecule, the solubility (mole fraction) (353.75 K) was 0.000445, the solubility (mole fraction) (358.55 K) was 0.000505 and the solubility (mole fraction) (364.55 K) was 0.000574.
For `CCCCn1cc[n+](C)c1.F[P-](F)(F)(F)(F)F`, the solubility (mole fraction) (278.75 K) was 0.0009, the solubility (mole fraction) (283.55 K) was 0.00102 and the solubility (mole fraction) (289.55 K) was 0.00108. The solubility (mole fraction) (295.95 K) was 0.00126, the solubility (mole fraction) (302.25 K) was 0.00146 and the solubility (mole fraction) (310.35 K) was 0.00171. It also gave a solubility (mole fraction) (314.95 K) of 0.00195, a solubility (mole fraction) (319.65 K) of 0.00218 and a solubility (mole fraction) (326.65 K) of 0.00244. It also gave a solubility (mole fraction) (333.25 K) of 0.0029, a solubility (mole fraction) (338.35 K) of 0.00339 and a solubility (mole fraction) (344.35 K) of 0.00371. The solubility (mole fraction) (350.85 K) was 0.00444, the solubility (mole fraction) (357.35 K) was 0.00532 and the solubility (mole fraction) (362.15 K) was 0.00628.
`CCCCCCn1cc[n+](C)c1.F[P-](F)(F)(F)(F)F` showed a solubility (mole fraction) (286.45 K) of 0.000326, a solubility (mole fraction) (296.65 K) of 0.00041 and a solubility (mole fraction) (302.65 K) of 0.000448. It also gave a solubility (mole fraction) (307.85 K) of 0.000503, a solubility (mole fraction) (312.95 K) of 0.000545 and a solubility (mole fraction) (319.35 K) of 0.00066. It also gave a solubility (mole fraction) (326.35 K) of 0.000734, a solubility (mole fraction) (331.75 K) of 0.000852 and a solubility (mole fraction) (336.15 K) of 0.000919. It also gave a solubility (mole fraction) (340.25 K) of 0.00105, a solubility (mole fraction) (345.85 K) of 0.00113 and a solubility (mole fraction) (350.75 K) of 0.00128. The solubility (mole fraction) (355.25 K) was 0.00144, the solubility (mole fraction) (359.95 K) was 0.00157 and the solubility (mole fraction) (363.05 K) was 0.0018.
